A short description of data set [1]: Pharmacokinetics of noribogaine in healthy male volunteers (plasma and urine, LCMSMS). Conditions: for AUC0-216 / AUC0-∞ / Cmax / Tmax / t½: mean (SD).
Another data set relates to dogs. Briefly: Fourteen day repeat dose toxicity in dogs. The data set is classed as in vivo, dog. How it is done:
The objective of this study was to determine the toxicity profile of noribogaine HCl given following oral (gavage) administration to dogs for 14 days according to the following Table 3 below:
Noribogaine HCl was administered to groups of 4 male and 4 female dogs by single oral gavage daily for 14 days at doses of 0, 0.5, 1.0 and 5.0 mg/kg/day. An additional group of 4 male and 4 female dogs received either the vehicle control or 5.0 mg/kg/day for 14 days and were held for an additional 28 days after cessation of dosing to assess recovery from any potential drug-induced changes. The study was conducted under GLP guidelines and included comprehensive examinations of clinical signs, body weight, clinical pathology parameters, ophthalmologic examinations, ECG recordings and analyses of plasma for bioanalytical measurement of drug levels at appropriate intervals during the study. At the termination of the dosing phase and at the termination of the recovery phase, all dogs were subjected to a complete post-mortem examination including gross examination of major organs and histologic examination of an extensive list of tissues. Additional sections of brain were obtained from cerebrum, cerebellus, brain stem and spinal cord and examined histologically to evaluate potential effects on brain histopathology. In addition, these sections were examined with immunohistochemical stains for GFAP for evidence of gliosis and Calbindin for a more comprehensive examination of cerebellar Purkinje cells.

Data set [2] can be described thus: Human pharmacokinetic study, single oral tablet, fasting healthy volunteers (serum levels). The data set is classed as in vivo. Conditions: 3, 10, 30 or 60 mg once orally, healthy volunteers. How it is done: In double blind studies, fasting healthy volunteers (6 per cohort) were treated once orally with a tablet of noribogaine HCl. In escalating cohorts, the volunteers received 3 mg, 10 mg, 30 mg or 60 mg noribogaine.

In a further data set the test system is Sprague-Dawley rats. Briefly: Fourteen day repeat dose toxicity in rats. It is filed as in vivo, rat. How it is done: This study was conducted to evaluate the toxicity profile of noribogaine-HCl following oral (gavage) administration to the rat for 14 days following Table 2 below:
Male and female Sprague-Dawley rats, 10/sex/group, were administered 0, 25, 50 or 100 mg/kg noribogaine HCl daily by single oral gavage for 14 days. An additional 5 rats/sex/group in the 0 (control) and 100 mg/kg groups were retained for a 28 day recovery period during which no drug was administered. Six rats/sex/group (3 rats/sex controls) were similarly dosed and sampled on study days 1 and 14 for analysis of noribogaine-HCl concentrations in the blood.

A further data set concerns Sprague-Dawley rat. Briefly: Single dose toxicity in rats. The data set is classed as in vivo. How it is done: The objective of this study was to determine the toxicity and toxicokinetic profile of noribogaine HCl following a single oral (gavage) administration in the Sprague-Dawley rat. A single dose of 100, 300 and 800 mg/kg (achieved with doses of 400 mg/kg 3 h+/−30 min apart because of the limitations of maximum dose formulation concentration). Five male rats/group were used. […] Hypoactivity, vocalization, chewing movements, changes in respiration/posture, salivation, stimuli sensitivity, tremors, twitches and penile erection occurred prior to death. […] The NOAEL was determined to be 100 mg/kg.

[3] abbreviates: glucuronide in plasma after 30 mg noribogaine (n = 6).
The mark [4] stands for this setting: glucuronide in plasma after 60 mg noribogaine (n = 6).
[5] abbreviates: plasma, 30 mg and 60 mg dose groups.

`CC[C@H]1C[C@@H]2C[C@H]3c4[nH]c5ccc(OC6OC(C(=O)O)C(O)C(O)C6O)cc5c4CCN(C2)[C@@H]13` (stereo partly shown) [Noribogaine glucuronide, noribogaine glucuronide]: the “Proportion of Cmax and AUC relative to noribogaine” value in data set [1] (both dose groups (30 mg, 60 mg)) is 3-4%. In data set [1] (setting [3]), the AUC0-216 was 25.7 (9.1) ng · hr/ml, the “AUC0-∞” value is on record as 25.8 (9.3) ng · hr/ml, the Cmax is recorded as 1.8 (0.6) ng/ml and the Tmax is on record as 3.0 (0.6) hr. Further, in data set [1] (setting [3]), the t½ is 20.6 (4.9) hr. Besides, in data set [1] (setting [4]), the AUC0-216 is 65.0 (21.5) ng · hr/ml, the “AUC0-∞” value is on record as 67.1 (21.9) ng · hr/ml, the Cmax is 4.1 (1.2) ng/ml and the Tmax is listed as 3.8 (1.2) hr. In data set [1] (setting [4]), the t½ was 23.1 (3.0) hr. For the same compound, in data set [1] (setting [5]), the Mean half-life was in the range of 21 to 23 h and the “Time of peak concentrations after noribogaine dosing” value fell in the range of 3 to 4 h. Besides, the “Time by which detected in all subjects” value in data set [1] (plasma, after 30 mg and 60 mg noribogaine) is not above 0.75 h.
A word on the NOAEL: it is the highest tested level that showed no adverse finding. `CC[C@@H]1C[C@H]2CC3c4[nH]c5ccc(O)cc5c4CCN(C2)C31.Cl` [noribogaine HCl]: the “Lacrimal gland changes (only target tissue)” value in the data set on dogs (5 mg/kg/day) was “slight to moderate atrophy and degeneration of the acinar cells”. Further, the “Lacrimal gland change after 28 days recovery” value with dogs (5 mg/kg/day recovery group) is reported as “clear evidence of regeneration”. Also, the “Adverse effect in clinical observations, body weights, clinical pathology, ophthalmology, ECG, gross lesions” value with dogs (0.5, 1.0, 5.0 mg/kg/day oral gavage 14 days, dosing or recovery phase) is “No evidence of adverse effect”. The NOAEL in the data set on dogs (14 days oral gavage, based on lacrimal gland changes at 5 mg/kg/day) is on record as 1 mg/kg/day; in the data set on Sprague-Dawley rats (14 days oral gavage, highest dose tested), 100 mg/kg; with Sprague-Dawley rat (single oral gavage, male rats), 100 mg/kg. Further, in data set [2], the “Clinically relevant adverse effects” value is “no clinically relevant adverse effects were observed”. For the same compound, the Body weight change was −2.6% in the data set on Sprague-Dawley rats (100 mg/kg, females) and −5.5% in the data set with Sprague-Dawley rats (100 mg/kg, males). Moreover, the Food consumption change in the data set on Sprague-Dawley rats (100 mg/kg, males and females) is −4.7%. Further, the “Test article-related effects on mortality, clinical signs, ophthalmoscopy, hematology, coagulation, clinical chemistry, urinalysis, gross necropsy, histopathology” value in the data set with Sprague-Dawley rats (25, 50 or 100 mg/kg daily oral gavage, 14 days) is “no test article-related effects”. The “Brain sections stained for GFAP or Calbindin” value in the data set on Sprague-Dawley rats (14 days oral gavage) is “No treatment-related differences”. Moreover, the Liver weight result in the data set on Sprague-Dawley rats (mid- and high dose groups) was “Minor increases in liver weight”. In addition, the Treatment related signs result in the data set on Sprague-Dawley rat (100 mg/kg) is recorded as “did not show any treatment related signs”. The “Rats with clinical signs (hypoactivity, vocalization, salivation, stimuli sensitivity, loss of limb function, lying on cage floor) persisting until Day 2” value in the data set with Sprague-Dawley rat (300 mg/kg) was 3/5. In addition, the Mortality entry with Sprague-Dawley rat (800 mg/kg (two doses of 400 mg/kg 3 h apart), oral gavage, 5 male rats) is given as “Mortality occurred in all male rats”. For the same compound, the “Time of mortality after administration of the second dose” value with Sprague-Dawley rat (800 mg/kg group) lay in the range of 2 to 3 h.

(Values after patent US20150258107A1, “METHODS AND COMPOSITIONS FOR TREATING DEPRESSION” (DemeRx, Inc., priority 2014, published 2015).)
